The target in this test is T1, human BK2 receptor (Homo sapiens, UniProt P30411).
T1 construct: expressed in transfected cells; host or cells: CHO-K1 (ATCC)
T1 sequence (P30411 1-391): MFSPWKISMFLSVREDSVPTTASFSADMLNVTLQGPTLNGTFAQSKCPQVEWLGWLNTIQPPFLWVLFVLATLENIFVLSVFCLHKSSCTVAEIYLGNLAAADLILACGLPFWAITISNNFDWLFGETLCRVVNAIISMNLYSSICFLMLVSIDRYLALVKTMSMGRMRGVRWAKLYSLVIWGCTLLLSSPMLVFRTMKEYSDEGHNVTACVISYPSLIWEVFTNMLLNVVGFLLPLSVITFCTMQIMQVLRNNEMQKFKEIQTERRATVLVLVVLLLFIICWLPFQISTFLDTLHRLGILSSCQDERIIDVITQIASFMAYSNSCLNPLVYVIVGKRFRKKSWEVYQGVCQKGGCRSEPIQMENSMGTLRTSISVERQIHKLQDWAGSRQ
The test can be described thus: Bradykinin 2 human receptor clone binding assay (inhibition of radio-labeled bradykinin binding). The settings on record: compound resynthesized in pure form, read-out: IC50, BK binding inhibition. The procedure: Bradykinin 2 and Bradykinin 1 Human Receptor Clone Binding Assays
Human bradykinin B2 receptor was expressed in CHO-K1 (ATCC) cells. Preparation of membranes for binding assay was carried out by scraping cells from roller bottles in ice cold PBS and centrifuging at 1000× g, at 4° C. for 15 minutes. The supernatant was discarded and pellet resuspended in Buffer A consisting of 25 mM TES (pH 6.8) with 2 uM 1,10-phenanthroline, and centrifuged at 27,000× g for 15 min. The pellet was washed once using the same buffer and centrifugation parameters. The final pellet was resuspended in Buffer B (Buffer A with 2 uM captopril, 140 ug/ml bacitracin, 0.1% BSA), and stored in 1 ml aliquot, frozen at -70° C. until needed.
B2 Binding assays were performed by incubating human clone membrane solution with ^3 H-bradykinin (final concentration 0.3 nM) with or without test compounds in assay buffer (Buffer B with 1 mM dithiothreitol), at room temperature, for 45 minutes, at a final volume of 315 ul. All test compound dilutions were done in triplicate. Assays were harvested by quick filtration in a Tomtec Harvester 96, with ice-cold wash buffer consisting of 10 mM Tris/HCl, pH 7.5, 100 mM NaCl,0.02% BSA, onto Wallec printed glassfiber Filtermat "B", which had been pre-soaked with 0.1% PEI and previously air-dried. Filtermats were counted in 9.5 ml Wallec Beta-Plate Scint, in Wallec 1450 MicroBeta Counter.

Turning to `N=C(N)NCCCCCCCN1CC(=O)N(Cc2ccc(-c3ccccc3)cc2)C(C2Cc3ccccc3C2)C1=O` (racemic) [Example 61], the 50% inhibitory concentration (IC50) (as a rule, the concentration at which inhibition is half-maximal) was found to be 13 µM.

As to `N=C(N)NCCCCCCN1CC(=O)N(Cc2ccc3ccccc3c2)C(C2Cc3ccccc3C2)C1=O` (racemic) [Example 60], the 50% inhibitory concentration (IC50) turned out to be 4.1 µM.

(Values after patent US5811241A, “Method for preparing and identifying N-substitued 1,4-piperazines and N-substituted 1,4-piperazinediones” (Cortech, Inc., priority 1995, dated 1998).)
